Results taken from patent US5451564A, “Antimicrobial composition comprising N-hydroxy heterocyclic thiones” (priority 1991, dated 1995).

Key:
[1] = aqueous solubility of zinc complex after milling in pyrophosphate solution and dilution with distilled water until clear; type: physicochemical; details: for solubility in the presence of pyrophosphate (in words): relative to absence of oxy-phosphorus compound
Method: The concentration of the 2:1 zinc complex was then determined.
The zinc complex was milled in a 0.1 molar solution of tetrasodium pyrophosphate as described in Example 1. This was then diluted with distilled water until a clear solution was obtained.
These solutions were prepared by the method described in Example 1.

[2] = tested on: Pseudomonas aeruginosa (ATCC 19429); experiment: survival of bacteria in shampoo preserved with biocide; type: cell-based
Method: A shampoo having the following composition
*Empicol, Empilan and Empigen are registered Trademarks of Albright and Wilson, was prepared by stirring the Empicol ESB70 in water, and then adding the Empilan 2502 followed by the Empigen BB to give a clear homogenous solution. An aqueous solution of citric acid was added with stirring to give a pH of 7. Finally, the sodium chloride was added and the whole diluted to parts by adding water.
Aliquots (20 parts) of the above shampoo were then prepared with concentrations of the biocides indicated in Table 4 at 500, 125, 31.25 and 7.8 ppm of active ingredient.
The above samples were then challenged with a 0.2 parts by volume inoculum of a 24 hour culture of Pseudomonas aeruginosa (ATCC 19429) containing approximately 1×10^8 colony forming units (cfu's) per milliliter. The samples were then incubated in the dark at 25° C., 1 milliliter samples taken after 24 hours, 48 hours and 7 days and the number of surviving bacteria determined.
The procedure described in Example 7 was repeated, except that the compounds and formulations used in that example were replaced by a commercially available formulation of zinc pyrithione or a 1% dispersion of the 2:1 complex of 1-hydroxy-2-pyridinethione and zinc in an aqueous solution of 0.1M tetrasodium pyrophosphate prepared as described in Example 1.

[3] = tested on: mixed algal suspension (Stichococcus bacillaris, Gloecapsa alpicola, Nostoc commune, Trentepohlia aurea); details: zinc complex of 1-hydroxy-2-pyridinethione as 1% dispersion in 0.1M pyrophosphate (sample a: nil); re-challenge after 2 weeks, examined after 4 weeks
Method: A sample containing no biocide was include as a control.
The above aliquots were then inoculated with 0.1 parts by volume of a mixed algal suspension of 7 day cultures of the following algae.
The samples were then incubated at 15° to 20° C. and exposed to artificial illumination of between 700 and 1200 LUX over a two week period, where the illumination was provided from the side and the light varied over a 24 hour period to give 16 hours illumination and 8 hours darkness.
After a two week incubation period, the samples were re-challenged with the mixed algal inoculum, and again examined after a 4 week incubation period. The minimum inhibitory concentration at which algal growth was suppressed was then established by visual assessment.

[4] = tested on: Candida albicans; details: agar, 4 days at 25° C; 1% dispersion in 0.1 molar pyrophosphate (sample a: nil)
Method: (§1) In the microbiological testing, the compositions were tested for anti-microbial activity against bacteria and/or fungi including a yeast. The bacteria used were one or more of Eshcerichia coli, Pseudomonas aeruginosa, Staphylococcus aureus and Bacillus subtills. The fungi/yeast used were one or more of Aspergillus niger, Candida albicans, Aureobasidum pullulans, Gliocladium roseum, and Penicillium pinophilum.
(§2) These test organisms will be referred to hereafter as EC, PA, SA, BS, AN CA, AP, GR and PP respectively.
(§3) The material to be tested was dissolved in a suitable solvent and the solution obtained diluted with a further quantity of the same solvent to give a desired product concentration.
(§4) To a suitable agar medium was added a quantity of the product solution to give a desired concentration of the product. The agar medium containing the product was poured into petri dish plates and allowed to set.
(§5) The test organisms were surface inoculated onto the test plates by means of a multi-point inoculator. Each test plate was inoculated with both bacteria, fungi and yeast. The plates were incubated for four days at 25° C.
(§6) At the end of the incubation period, the plates were assessed visually for growth of the micro-organisms. The concentration of the product which inhibited the growth of a particular micro-organisms was recorded. This is the minimum inhibitory concentration (M.I.C.).
(§7) Generally, the compositions are evaluated against bacteria at the 25 and 100 ppm levels, and against fungi and yeast at the 5, 25 and 100 ppm levels.
(§8) 1% dispersions of the 1:2 zinc complex obtained from 1-hydroxy-2-pyridinethione were prepared in 0.1 molar solutions of various pyrophosphates as described in Example 1.

[5] = tested on: Aspergillus niger; details: agar, 4 days at 25° C; 1% dispersion in 0.1 molar pyrophosphate (sample a: nil)
Method: as §1, §2, §3, §4, §5, §6, §7, §8

[6] = tested on: Bacillus subtills; details: agar, 4 days at 25° C; 1% dispersion in 0.1 molar pyrophosphate (sample a: nil)
Method: as §1, §2, §3, §4, §5, §6, §7, §8

[7] = tested on: Penicillium pinophilum; details: agar, 4 days at 25° C; 1% dispersion in 0.1 molar pyrophosphate (sample a: nil)
Method: as §1, §2, §3, §4, §5, §6, §7, §8

[8] = tested on: Pseudomonas aeruginosa; details: agar, 4 days at 25° C; 1% dispersion in 0.1 molar pyrophosphate (sample a: nil)
Method: as §1, §2, §3, §4, §5, §6, §7, §8

[9] = tested on: Eshcerichia coli; details: agar, 4 days at 25° C; 1% dispersion in 0.1 molar pyrophosphate (sample a: nil)
Method: as §1, §2, §3, §4, §5, §6, §7, §8

[10] = tested on: Staphylococcus aureus; details: agar, 4 days at 25° C; 1% dispersion in 0.1 molar pyrophosphate (sample a: nil)
Method: as §1, §2, §3, §4, §5, §6, §7, §8

[11] = tested on: Aureobasidum pullulans; details: agar, 4 days at 25° C; 1% dispersion in 0.1 molar pyrophosphate (sample a: nil)
Method: as §1, §2, §3, §4, §5, §6, §7, §8

[12] = tested on: Gliocladium roseum; details: agar, 4 days at 25° C; 1% dispersion in 0.1 molar pyrophosphate (sample a: nil)
Method: as §1, §2, §3, §4, §5, §6, §7, §8

[13] = tested on: bacteria, fungi, yeasts and algae; details: in the presence of pyrophosphate salts
Method: Further aspects of the present invention are described in the following illustrative examples. Unless otherwise stated all refer to parts by weight.
as §1

SMILES	solubility in the presence of pyrophosphate (in words) [1]	Solubility ([1]; zinc dithiocarbamate complexes, nil or 0.1 M tetrasodium pyrophosphate)	viable bacteria ([2]; 125 ppm, after 24 HRS)	viable bacteria ([2]; 125 ppm, after 48 HRS)	viable bacteria ([2]; 500 ppm, after 7 DAYS)	viable bacteria ([2]; 500 ppm, after 24 HRS)	viable bacteria ([2]; 500 ppm, after 48 HRS)	MIC (algal growth suppressed) [3]	MIC CA [4]	MIC AN [5]	MIC BS [6]	MIC PP [7]	MIC PA [8]	MIC EC [9]	MIC SA [10]	MIC AP [11]	MIC GR [12]	Solubility ([1]; 1:2 zinc complex of 1-hydroxy-2-pyridinethione, pebble milled in 0.1 molar pyrophosphate salt (sample a: nil), diluted with distilled water)	effect of increased solubility in pyrophosphate on microbiological activity [13]
S=C([S-])NCCNC(=S)[S-].[Zn+2] [EBD, zinc complex of ethylene bis dithiocarbamate]	increased solubility	< 5 ppm	–	–	–	–	–	–	–	–	–	–	–	–	–	–	–	–	–
CN(C)C(=S)[S-].CN(C)C(=S)[S-].[Zn+2] [ZDM, zinc complex of dimethyldithiocarbamate]	–	–	< 10	< 10	< 10	< 10	< 10	–	–	–	–	–	–	–	–	–	–	–	–
On1ccccc1=S.On1ccccc1=S.[Zn] [a, 1:2 zinc complex of 1-hydroxy-2-pyridinethione]	improved solubility	–	–	–	–	–	–	0.64 ppm	25 ppm	25 ppm	25 ppm	5 ppm	NA (Not active at 100 ppm)	25 ppm	25 ppm	5 ppm	5 ppm	< 10 ppm	does not adversely affect the microbiological activity
